Experimental findings from a melting point compilation (Tetko et al.; mined from patent text by program, amines drawn as free bases though some values may be those of a salt) are described below.

The structures appear in SMILES notation. Where only a bound is given, the exact number is not on record here.

A word on the melting point: it is the temperature, or range, at which the solid turns liquid. Compound `COC(=O)c1ccc2c(nc(C)n2C)c1C1=NC(C)(C(C)C)C(=O)N1` (stereo unspecified) showed a melting point of 240 to 242 °C. For `CC(C)n1nc(-c2cnc(N)nc2-c2ccc(F)c(F)c2)ccc1=O` the value was 208 °C; for `CCOC(=O)C1=C(C)NC(c2cnc(C)s2)=NC1c1ccc(F)cc1Cl` (stereo unspecified), 107 to 111 °C; for `OCCN1CCOC(c2ccccc2)(c2ccccc2)CC1`, 122 to 123 °C. For `CCCCCCCCN(CCCCCCCC)C(=O)Nc1ccccc1CCc1cc(C(C)(C)C)c(O)c(C(C)(C)C)c1` the value was 55 to 60 °C.

For the compound `COc1ccc(C(=O)c2c(-c3ccccc3)oc3ccc([N+](=O)[O-])cc23)cc1`, the melting point came out at 153 °C. As to `N#CC(NC(=O)C(F)(F)C(F)(F)C(F)(F)F)c1ccc(Cl)cc1` (stereo unspecified), the melting point lay within 93 to 95 °C.

`COc1ccc(CN(C)CCNc2ccc(NC(=O)c3cccc4c(=O)c5cccc(OC)c5[nH]c34)cc2)cc1OC` showed a melting point of 196 °C. The figure for `O=c1oc2ccccc2c2c(-c3ccccc3)c3c4ccccc4ccn3c12` is 313 to 315 °C; for `CC(=C1SC(=O)NC1=O)c1ccc(OCCOc2c(-c3ccc(F)c(F)c3)n(C)c3cc(Cl)ccc3c2=O)c(Cl)c1` it is 140 to 142 °C; for `CC1(C)[C@H](C=C(Cl)Cl)[C@@H]1C(=O)OCc1cccc(-c2ccc(Br)o2)c1` (relative stereo) it is 76.5 to 77 °C. For `Nc1c(Cl)cc(-c2nc(C3CCNCC3)no2)c2c1CCO2` the value was 219 °C. The figure for `C1=Cc2cc3ccccc3cc2C1` is 160 to 163 °C. `CCOP(=O)(OCC)C(C)(C)CC1(C)NC(=O)NC1=O` (stereo unspecified) registered a melting point of 142 to 146 °C.

As for `COc1ccc(CNS(=O)(=O)c2ccc(C(CC3CCCC3)C(=O)Nc3nc4ccc(OC)nc4s3)cc2)cc1` (stereo unspecified), the melting point was 170 to 172 °C. The figure for `CS(=O)c1ccc(-c2nc3n(c2-c2ccncc2)CCC3)cc1` (stereo unspecified) is 164 to 166 °C; for `CCCCc1nc2c(N)nc3ccccc3c2n1CCN` it is 196 to 199 °C. For `CC1CC(=O)NN=C1c1ccc(CCCCN)cc1` (stereo unspecified) the value was 135 to 137 °C; for `Cc1nccn1C(c1ccccc1)(c1ccccc1)c1ccccc1Cl`, 177 °C. For `CCOC(=O)C(Cc1ccc(OCC=C(C)c2ccc(-c3ccc(C(C)=CCOc4ccc(CC(OCC)C(=O)OCC)cc4)cc3)cc2)cc1)OCC` (stereo unspecified) the value was 100 to 106 °C; for `Cc1cc(N)nc(CCc2nc3cc(-c4ccccc4)cnc3[nH]2)c1`, 230 °C; for `O=S(=O)(Nc1ccc2cnccc2c1)c1ccccc1`, 204 to 206 °C. Consider `CC(NC(=O)c1cccc(I)c1)C(O)c1ccccc1` (stereo unspecified), for which the melting point was in the range of 139 to 140 °C. For `CNC1([C@@H]2CCN(c3c(F)cc4c(=O)c(C(=O)O)cn([C@@H]5C[C@@H]5F)c4c3OC)C2)CC1` the value was 208 to 209 °C.

Regarding `CC(=O)C1=C(C#N)C(c2cccc(C#N)c2Br)c2c[nH]nc2N1` (stereo unspecified), the melting point is more than 230 °C. For `CCC(O)c1c(S(N)(=O)=O)nn(C)c1C(C)(C)C` (stereo unspecified) the value was 113 to 115 °C; for `Cn1ccc2c1Cc1nncn1C=C2`, 178 °C; for `CCCCc1nc2c(N)nc3cccnc3c2n1CCNC(=O)C(N)CC(C)C` (stereo unspecified), 60 to 65 °C. For `COc1c2nc(CCl)n(C)c(=O)c2c(OC)c2nc(CCl)n(C)c(=O)c12` the value was 273 to 274 °C. The compound `CCCC(c1ccccc1OCc1ccc(Cl)cc1Cl)n1ccnc1` (stereo unspecified) displayed a melting point of 89 to 90 °C. The figure for `Cn1cc2c3c(c(F)cc2n1)CCC3=CC#N` is 249 to 252 °C; for `CCn1cc(C(=O)NCc2ccc(Cl)cc2)c(=O)c2cc(C#CCOC(=O)c3cccc(CN4CCOCC4)c3)sc21` it is 147 to 150 °C. `CC(C)CC1(C(CCNC(=O)c2ccc(F)c(F)c2)C(=O)OC(C)(C)C)CCN(CCc2ccccc2)C1=O` (stereo unspecified) came in with a melting point of 147 to 148 °C.

As to `CC(CNC1CC(C)(C)NC(C)(C)C1)C(=O)NC1CC(C)(C)NC(C)(C)C1` (stereo unspecified), the melting point was 116 °C. For `Cc1ccc(C2c3c(C)c(NCc4ccc(F)cc4)c(C)c(C)c3OC2(C)C)cc1` (stereo unspecified) the value was 92 to 94 °C; for `COc1cc2c(c(Cl)c1Cl)CCC2=O`, 163 to 165 °C; for `CSc1nncc(-c2ccccc2)n1`, 99 to 100 °C. `Cc1[nH]cnc1CSCCNc1nnc(Cc2cccnc2)c(=O)[nH]1` yielded a melting point of 232 to 233 °C.

`CN1C(=O)N(c2c(Cl)cccc2Cl)Cc2cnc(Nc3ccc(F)cc3)nc21` yielded a melting point of 208 to 211 °C.

Consider `O=[N+]([O-])c1ccc(Oc2cccc3c(Oc4ccc([N+](=O)[O-])c(O)c4)cccc23)cc1O`, for which the melting point fell in the range of 238 to 241 °C.

In turn, `CCCCc1nc2c(C(=O)O)cccc2n1Cc1ccc(C(=O)O)cc1` came in with a melting point of 250 °C.

Turning to `CC(C)Oc1cc(-c2[nH]c3cn[nH]c(=O)c3c2Cl)ccc1OC(F)F`, the melting point was in the range of 248 to 262 °C. The figure for `O=C(Nc1ccccc1)c1ccc(F)c(Nc2ccccc2)c1` is 132 to 133 °C; for `Cc1cc(-c2cc(C(F)(F)F)nc(-c3cccc(-c4cccc(S(N)(=O)=O)c4)c3)n2)ccc1C(F)(F)F` it is 205 °C; for `Cc1cc(Br)c2nc(Cl)ccc2c1` it is 107 to 108 °C.

The compound `CC(C)CCc1c(-c2ccc(S(C)(=O)=O)c(F)c2)cnn(-c2ccc(F)c(Cl)c2)c1=O` gave a melting point of 102 to 104 °C. The figure for `COc1ccccc1C(=CC#N)c1ccccc1OC` is 99 to 100 °C; for `COc1cccc2c1C(=O)c1c(OC)cc(C(=O)N(C)O)cc1C2=O` it is 182 °C. For `Cc1c(C(=O)O)nc2c(=O)[nH]c3cc(F)ccc3n12` the value was more than 250 °C. `Cc1cc(C(=O)NC2CCCCC2)ccc1[N+](=O)[O-]` returned a melting point of 134 to 141 °C. The figure for `COc1nc2ccccc2nc1NC(=O)N1CCN(c2cc([N+](=O)[O-])cc([N+](=O)[O-])c2)CC1` is 216 to 218 °C; for `CCCNC(=O)C=C1SC(Nc2c(Cl)cccc2Cl)=NC1=O` it is more than 230 °C; for `Cn1cc(-c2ccc(Cl)cc2Cl)c(=O)cc1C(F)(F)F` it is 205 to 206 °C. The figure for `Cc1nc(-c2ccc(-c3ccc(C(=O)Nc4cc(OCCN(C)C)c(I)cc4I)cc3)c(C)c2)no1` is 69 to 71 °C; for `CC(=O)C(=Cc1ccc(C#N)cc1)C(C)=O` it is 86 to 88 °C.

Consider `CCCOc1ccccc1C(=O)Nc1sccc1C(N)=O`, for which the melting point lay in the range of 176 to 178 °C. The figure for `COc1ccc2cc(CCCOCCCCCCNCC(O)c3cc(Cl)c(N)c(Cl)c3)ccc2c1` (stereo unspecified) is 102 to 104 °C. For `COC(=O)/C(=C/c1cccc(OC)c1)c1cc(OC)c(OC)c(OC)c1` the value was 87 to 88 °C; for `C=CCC1(O)CCC2C3CCC4=CC(=O)CCC4C3CCC21CCC` (stereo unspecified), 135 to 137 °C. For `CN(Cc1cc2c3c(c1)c(=O)c(C(=O)NCc1ccc(F)cc1)cn3CC(=O)N2C)C[C@@H](O)c1cccnc1` the value was 108 to 110 °C.

Compound `COc1ccc2c(c1)C(N)(CCC#N)C(=O)N2c1ccc(F)cc1` (stereo unspecified) displayed a melting point of 136 to 138 °C. The figure for `CNc1cccc([N+](=O)[O-])c1N` is 93 °C; for `CC(C)c1nccn1-c1nc(-c2ccc(Cl)cc2)c(CCC(=O)O)o1` it is 173 to 174 °C; for `CN1CCN(c2ccc(Nc3nc(N)c(C(=O)c4c(F)cccc4C(F)(F)F)s3)cc2)CC1` it is 155 to 158 °C. The figure for `COCCOc1ccc(CCCOc2nn(C)cc2CC(=O)O)c(Oc2ncc(C(F)(F)F)cc2Cl)c1` is 127 to 129 °C; for `CCCCCCCCCCCCC(Oc1ccc2c(c1)OCO2)C(=O)O` (stereo unspecified) it is 70 to 72 °C; for `OC(CCl)Cn1c2ccccc2c2cc(-c3ccc4c(c3)c3ccccc3n4CC(O)CCl)ccc21` (stereo unspecified) it is 152 to 153 °C. Compound `NC(=O)c1ccc(NC(=NC(=O)c2cccc(Br)c2)NC(=O)c2ccccc2)cc1` had a melting point of 282 to 283 °C. Regarding `CC(=O)Nc1c(C(=O)c2cccc(C(=O)O)c2)[nH]c2cc(Cl)ccc12`, the melting point is more than 290 °C.

As to `Cc1nc(COc2ccc3c(c2)c(SC(C)(C)C)c(CC(C)(C)C(=O)O)n3Cc2ccc(Cl)cc2)cs1`, the melting point was 196 to 198 °C. In turn, `CCCCOc1c(N(C)C(=O)OC(C)(C)C)n(CC(C)C)c(=O)c2ccc(-c3cnco3)cc12` had a melting point of 152 to 153 °C.

As for `Cc1c(O)ccc2c1OCC(c1ccc(Cl)cc1)C2` (stereo unspecified), the melting point was in the range of 98 to 100 °C. The figure for `O=c1[nH]c(-c2csc3ccccc23)nc2ccc(N3CCOCC3)cc12` is more than 300 °C. The figure for `C#CCC(CCc1ccccc1)(C(N)=S)c1cccnc1` (stereo unspecified) is 73 to 74 °C. Consider `CCOP(=O)(OCC)C1(P(=O)(OCC)OCC)CC(C(=O)CC)=NN1`, for which the melting point fell in the range of 96 to 98 °C. For `Cc1c[nH]n(Cc2ccc(Cl)c(Cl)c2)c1=O` the value was 156 °C. `CCc1nc2ccc(S(C)(=O)=O)nn2c1S(N)(=O)=O`: the melting point is 225 to 226 °C. In turn, `CCCC1C(=O)Oc2c(Oc3ccccc3Cl)cccc21` (stereo unspecified) returned a melting point of 51 to 53 °C.

With `Clc1ccccc1-c1cc[nH]n1`, the melting point worked out at 93 °C.

With `CCCCCCCCCCCCSc1cc2nc(C(CC)CCCC)oc2cc1[N+](=O)[O-]` (stereo unspecified), the melting point fell in the range of 108 to 110 °C. For `Cc1ccn(-c2ccc(C(=O)N3Cc4cccn4Cc4ccccc43)c(O)c2)n1`, the melting point fell in the range of 134 to 136 °C. The figure for `CCCCCCCCCCCCCCOc1ccc(CN(C(C)=O)c2cccc(CBr)c2)cc1` is 56 to 58 °C. The figure for `Cc1c(N2C[C@@H](NC(=O)C(F)(F)F)C(C)(C)C2)c(F)c(N)c2c(=O)c(C(=O)O)cn(C3CC3)c12` is 254 to 255 °C; for `O=C(CC(=O)C1CC1)c1cnccn1` it is 111 to 112 °C. For `CC(=O)Oc1cccc2sc(-c3ccc(C)cc3)nc12` the value was 110 to 113 °C.

The compound `COc1cc(Nc2c(C#N)cnc3cc(/C=C/CCN4CCOCC4)ccc23)cc(OC)c1OC` had a melting point of 128 to 130 °C.
